The compounds below were run on A549-NF-κB-SEAP reporter cells (assay: Inhibition of NF-κB-induced inflammation ([…] NINA Instant Assay, SEAP reporter)). Conditions: compounds of formula (I); TNF-α stimulated reporter cells; test concentration not given.
Type: cell-based
How it was run: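 Reporter cells reactivated 18 h at 37° C, pre-incubated 4.5 h with compound (0.01 up to 100 μM), then stimulated with 2 ng/ml TNF-α for 22 h. SEAP measured by CSPD chemiluminescence (40 min) after endogenous phosphatase inactivation; EC50 fitted from quadruplicates.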

SMILES	Biological activity (NF-κB inflammation assay, inhibition)
O=C(c1csc(C2CCN(S(=O)(=O)Cc3ccccc3)CC2)n1)N1CCN(c2cccc(C(F)(F)F)c2)CC1 [compound 198]	+ (“+” stands for 50-80% inhibition)
O=C(c1csc(C2CCN(S(=O)(=O)c3ccc(Br)cc3)CC2)n1)N1CCN(c2cccc(C(F)(F)F)c2)CC1 [compound 199]	+ (“+” stands for 50-80% inhibition)
O=C(c1csc(C2CCN(S(=O)(=O)c3ccc(Cl)cc3Cl)CC2)n1)N1CCN(c2cccc(C(F)(F)F)c2)CC1 [compound 200]	+ (“+” stands for 50-80% inhibition)
O=C(c1csc(C2CCN(S(=O)(=O)c3cc(C(F)(F)F)cc(C(F)(F)F)c3)CC2)n1)N1CCN(c2cccc(C(F)(F)F)c2)CC1 [compound 201]	++ (“++” means 80-90%)
COc1ccc(Cl)cc1S(=O)(=O)N1CCC(c2nc(C(=O)N3CCN(c4cccc(C(F)(F)F)c4)CC3)cs2)CC1 [compound 202]	++ (“++” means 80-90%)
O=C(c1csc(C2CCN(S(=O)(=O)c3ccc(Br)s3)CC2)n1)N1CCN(c2cccc(C(F)(F)F)c2)CC1 [compound 203]	+ (“+” stands for 50-80% inhibition)
Cc1ccc(S(=O)(=O)N2CCC(c3nc(C(=O)N4CCN(c5cccc(C(F)(F)F)c5)CC4)cs3)CC2)cc1 [compound 204]	+ (“+” stands for 50-80% inhibition)
O=C(c1csc(C2CCN(S(=O)(=O)c3ccc(OC(F)(F)F)cc3)CC2)n1)N1CCN(c2cccc(C(F)(F)F)c2)CC1 [compound 205]	+ (“+” stands for 50-80% inhibition)
O=C(c1csc(C2CCN(S(=O)(=O)c3ccc(Cl)cc3)CC2)n1)N1CCN(c2cccc(C(F)(F)F)c2)CC1 [compound 206]	+ (“+” stands for 50-80% inhibition)
CC(=O)Nc1ccc(S(=O)(=O)N2CCC(c3nc(C(=O)N4CCN(c5cccc(C(F)(F)F)c5)CC4)cs3)CC2)cc1 [compound 207]	+ (“+” stands for 50-80% inhibition)
O=C(c1csc(C2CCN(S(=O)(=O)c3ccccc3)CC2)n1)N1CCN(c2cccc(C(F)(F)F)c2)CC1 [compound 208]	+ (“+” stands for 50-80% inhibition)
COc1cccc(C(=O)N2CCC(c3nc(C(=O)N4CCN(c5cccc(C(F)(F)F)c5)CC4)cs3)CC2)c1 [compound 209]	+ (“+” stands for 50-80% inhibition)
CN1CCOc2cc(C(=O)N3CCC(c4nc(C(=O)N5CCN(c6cccc(C(F)(F)F)c6)CC5)cs4)CC3)ccc21 [compound 210]	++ (“++” means 80-90%)
O=C(c1ccc2nccnc2c1)N1CCC(c2nc(C(=O)N3CCN(c4cccc(C(F)(F)F)c4)CC3)cs2)CC1 [compound 211]	+ (“+” stands for 50-80% inhibition)
O=C(c1csc(C2CCN(C(=O)c3cccs3)CC2)n1)N1CCN(c2cccc(C(F)(F)F)c2)CC1 [compound 212]	+ (“+” stands for 50-80% inhibition)
O=C(c1csc(C2CCN(C(=O)c3cc4ccccc4s3)CC2)n1)N1CCN(c2cccc(C(F)(F)F)c2)CC1 [compound 213]	++ (“++” means 80-90%)
O=C(C=Cc1ccccc1)N1CCC(c2nc(C(=O)N3CCN(c4cccc(C(F)(F)F)c4)CC3)cs2)CC1 [compound 214]	++ (“++” means 80-90%)
O=C(c1ccc(C(F)(F)F)c(F)c1)N1CCC(c2nc(C(=O)N3CCN(c4cccc(C(F)(F)F)c4)CC3)cs2)CC1 [compound 215]	+++ (“+++” stands for 90-100% inhibition)
Cn1nc(C(C)(C)C)cc1C(=O)N1CCC(c2nc(C(=O)N3CCN(c4cccc(C(F)(F)F)c4)CC3)cs2)CC1 [compound 216]	++ (“++” means 80-90%)
O=C(c1csc(C2CCN(C(=O)C3COc4ccccc4O3)CC2)n1)N1CCN(c2cccc(C(F)(F)F)c2)CC1 (centres unmarked) [compound 217]	+++ (“+++” stands for 90-100% inhibition)

Reference: patent publication US7601745B2, “Heterocyclic NF-kB inhibitors” (4SC AG, priority 2004, dated 2009)
